Test results taken from PubChem BioAssay AID1241 (SRMLSC, 2008).

Test: NF-kB promoter reporter activators, neuronal cells, dose response, cell-based, SH-SY5Y, luciferase (AID 1241)
Conditions: fold induction

| SMILES | EC50 |
| --- | --- |
| c1ccc(Cn2ccc(-c3cnc(-c4ccccc4)s3)n2)cc1 | 2240 nM |
| COc1ccc(OCc2cccc(C(=O)O)c2)cc1 | 964 nM |
| CCOc1ccc2nc(NC(=O)Nc3cccs3)sc2c1 | 1680 nM |
| COc1ccc(-c2cn3c4c(sc3n2)CCCC4)cc1 | 650 nM |
| COc1ccc(-c2cc(=O)c3ccccc3s2)cc1 | 2060 nM |
| Cc1ccc(N=Nc2c(N)nn(-c3ccccc3)c2N)cc1 | 10000 nM |
| NC(=O)c1ccccc1N/C=C/C(=O)c1ccccc1 | 1040 nM |
| N#CC1=C2SC=C(c3ccc(Br)cc3)N2CCCC1=O | 19400 nM |
| Clc1ccc(-c2nnc(SCc3ccon3)o2)c(Cl)c1 | 1060 nM |
| CC(=Nc1cccc(O)c1)c1sc2ccccc2c1O | 2200 nM |
| C/C(=N\N1C(=O)c2ccccc2NC1c1ccco1)c1ccccc1O (stereo not given) | 2500 nM |
| CC(C)c1oc(=O)cc2c1[C@@H](O)[C@H]1OC(=O)[C@@]3(C)C[C@@H](O)[C@@H](O)[C@@]2(C)C13 (stereo not given in full) | 4450 nM |
| O=C(OCC(=O)c1cccs1)c1ccccc1 | 12600 nM |
| COc1ccc2nc3oc(C(=O)N4CCCCC4)cc3cc2c1 | 5270 nM |
| Cc1nn(-c2ccc([N+](=O)[O-])cc2)c(N)c1-c1ccccc1 | 6720 nM |
| COc1ccc(C(=O)Nc2cc(OC)nc(OC)n2)cc1 | 12000 nM |
| Cc1ccc(-c2nc3cc(Cl)ccc3o2)cc1 | 1750 nM |
| Cc1cc2nc(-c3ccc(SCC(=O)Nc4ccc(S(=O)(=O)NC5CC5)cc4)nc3)[nH]c2cc1C | 907 nM |
| O=C1CCOc2cc(OCc3ccccc3)ccc21 | 824 nM |
| O=C(Nc1ccc2c(c1)CCC2)c1ccc(Br)s1 | 772 nM |
| COc1ccccc1N1CCN(c2ccc(-c3ccccc3)nn2)CC1 | 718 nM |
| COc1ccc(NC(=O)N2CCc3ccccc32)cc1 | 697 nM |
| Cc1ccc2nc(-c3ccc(NC(=O)CCN4C(=O)c5ccccc5C4=O)cc3)sc2c1 | 155 nM |

| SMILES | EC50 |
| --- | --- |
| CCCCNc1ncnc2c1cnn2-c1ccccc1 | 6070 nM |
| COc1cccc(-c2nc3cc(C)ccc3o2)c1 | 1050 nM |
| Cc1csc(NC(=O)c2cc3c(s2)CCC3)n1 | 1050 nM |
| Cc1ccccc1Nc1nnc(SCC2CCCCO2)s1 (stereo not given) | 5760 nM |
| Cn1cccc1/C=C1\CCc2ccccc2C1=O | 1630 nM |
| COc1ccccc1/C=C/C(=O)Nc1ccc2c(c1)OCCO2 | 1190 nM |
| Cc1ccc(C(=O)/C=C/Nc2ccc3c(c2)OCO3)cc1 | 896 nM |
| Cc1ccc(S(=O)(=O)/N=C(/NC(=S)Nc2ccccc2)c2ccccc2)cc1 | 23500 nM |
| Fc1cccc(F)c1CSc1nc2ccccc2[nH]1 | 4340 nM |
| CCCCOC(=O)Nc1nc2ccccc2s1 | 3470 nM |
| Clc1c(CSc2nc3ccccc3o2)nc2sccn12 | 2410 nM |
| CSCCNC(=O)c1ccc(C(C)(C)C)cc1 | 5250 nM |
| CCN(CC)C(=O)c1sc2nc(-c3ccccc3)ccc2c1N | 3090 nM |
| Cc1ccc(C(=O)Nc2nc3c(s2)CCCC3)o1 | 1780 nM |
| COc1ccc(-c2csc(Nc3ccccc3)n2)cc1 | 2490 nM |
| c1ccc2sc(-c3ccc4c(c3)OCO4)nc2c1 | 868 nM |
| O=C(/C=C/c1ccccc1Cl)Nc1cccc(O)c1 | 1120 nM |
| CC(=O)c1ccc(Nc2ccc(-c3ccccc3F)nn2)cc1 | 838 nM |
| O=C(Nc1ccc2c(c1)CCC2)c1ccccc1 | 1840 nM |
| S=C(c1ccc(-c2ccc(Cl)c(Cl)c2)o1)N1CCOCC1 | 5190 nM |
| Cc1cc(C)n2cc(COc3ccc4ccccc4c3)nc2n1 | 1830 nM |
| COc1ccc(NC(=O)C2=Cc3ccccc3OC2)cc1 | 800 nM |
| O=C(c1cccs1)c1ccc(-c2cccs2)s1 | 623 nM |

| SMILES | EC50 |
| --- | --- |
| O=C(/C=C/c1ccc(Cl)cc1)Nc1nccs1 | 793 nM |
| O=C(Cc1ccccc1)Nc1nc2ccccc2s1 | 29500 nM |
| Cc1nnc(SCC(=O)Nc2ccc(-c3nc4ccccc4s3)cc2)s1 | 328 nM |
| Fc1ccc(-c2cnn3c(-c4ccncc4)ccnc23)cc1 | 1240 nM |
| COc1ccccc1Oc1ccc(N/C=C/C(=O)c2ccco2)cc1 | 7130 nM |
| Cc1cccc(/C=C/c2nc3ccccc3c(=O)[nH]2)c1 | 829 nM |
| COc1ccc(Nc2nc3ccccc3s2)cc1 | 20400 nM |
| O=c1c2ccccc2cnn1-c1ccc(Br)cc1 | 10200 nM |
| COC(=O)c1ccc(-c2nc3ccccc3[nH]2)cc1 | 946 nM |
| C/C(=N\NC(=O)c1ccc(Cl)cc1)c1cccs1 | 1400 nM |
| O=C(CSc1nnnn1-c1ccccc1)Nc1nsc(-c2ccccc2)n1 | 14200 nM |
| CCOC(=O)N/C(N)=N/c1nc2ccccc2s1 | 9450 nM |
| COc1ccc(C(=O)/C=C/Nc2ccc(C)cn2)cc1OC | 6490 nM |
| O=C(Nc1cnc2ccccc2c1)c1ccco1 | 1380 nM |
| Cc1ccc(-c2nc3cc(N)ccc3o2)cc1 | 2170 nM |
| c1cn2cc(-c3ccc4c(c3)OCO4)nc2s1 | 1860 nM |
| O=C(Nc1nc2ccc(Cl)cc2s1)c1ccco1 | 1190 nM |
| Cc1cc(C)c2nc(NC(=O)C3CCCO3)sc2c1 (stereo not given) | 18600 nM |
| c1ccc2oc(-c3csc(N4CCOCC4)n3)cc2c1 | 966 nM |
| CCC(=O)Nc1ccc2oc(-c3ccccc3Br)nc2c1 | 2640 nM |
| CC(=O)Nc1ccc2nc(-c3ccccc3)cn2c1 | 2700 nM |
| CC(C)(C)c1ccc(C(=O)Nc2cnccn2)cc1 | 1120 nM |
| Cc1ccc(-c2nnc(SCc3ccccc3F)o2)cc1 | 4630 nM |

| SMILES | EC50 |
| --- | --- |
| COc1ccccc1-c1nc(-c2ccc(Br)o2)no1 | 1040 nM |
| Cc1ccc(-c2noc(-c3ccccc3F)n2)cc1 | 6840 nM |
| CN(C)c1ccc(NC(=O)Nc2cccc(Cl)c2)cc1 | 3420 nM |
| CCOc1cccc2cc(-c3csc(NC(=O)CCC(=O)NCCN4CCCCC4C)n3)c(=O)oc12 (stereo not given) | 2760 nM |
| Cc1cc(O)ccc1Nc1nc(-c2cccs2)cs1 | 1510 nM |
| O=C(/C=C\c1ccccc1)Nc1nccs1 | 1070 nM |
| Cc1ccccc1-c1cc(-c2ccccc2O)n[nH]1 | 18000 nM |
| O=C(NC(=S)Nc1ccc2c(c1)OCCO2)c1ccccc1F | 1740 nM |
| CCOC(=O)/C(=C\c1ccccc1)C(=O)c1cc(C(C)=O)c(Nc2ccccc2)s1 | 17400 nM |
| CCN(CC)c1ccc(/C=N/NC(=O)c2ccco2)cc1 | 4280 nM |
| Cc1ccc2nc(NC(=O)c3cccs3)sc2c1 | 389 nM |
| Oc1ccccc1-c1cc(-c2cccc(F)c2)n[nH]1 | 7730 nM |
| O=c1oc2ccccc2cc1-c1nnc(NCc2ccco2)s1 | 1330 nM |
| N#C/C(=N/Nc1ccc([N+](=O)[O-])cc1)C(=N)N1CCCCC1 | 2610 nM |
| CCc1ccc(NC(=O)c2cc(C)on2)cc1 | 2860 nM |
| CCOC(=O)c1cnc2c(-c3ccccc3)cnn2c1C | 7520 nM |
| O=C(NC1CCCCCCC1)c1ccc2c(c1)OCO2 | 11000 nM |
| Cc1ccc(NC(=O)c2cc3ccccc3o2)cc1S(=O)(=O)N(C)C | 2040 nM |
| c1ccc(-c2ccc(-c3nc(-c4ccncc4)no3)cc2)cc1 | 636 nM |
| Cc1cccc(NC(=O)c2cnc3sccn3c2=O)c1 | 998 nM |
| COc1cccc(-c2nc(-c3ccccc3)no2)c1 | 1490 nM |
| CCOC(=O)c1cnc(Nc2nc3ccccc3o2)nc1CSC(=S)N(CC)CC | 2320 nM |
| COc1ccc(/C=C/c2nc3ccccc3n2Cc2ccccc2OC)cc1 | 4980 nM |

| SMILES | EC50 |
| --- | --- |
| Nc1nc(-c2ccc(-c3ccccc3)cc2)cs1 | 2420 nM |
| COC(=O)c1ccc(-c2ccc(Cl)cc2)nc1C | 4440 nM |
| COc1ccc(/C=N/Nc2ncccc2[N+](=O)[O-])c(OC)c1 | 3350 nM |
| O=C(/C=C/Nc1ccc(F)c(F)c1)c1cccs1 | 963 nM |
| CC(C)c1ccc(NC(=O)NC2CCCCC2)cc1 | 8150 nM |
| CCN(CC)c1ccc(/C=N/NC(=S)NC)c(O)c1 | 1980 nM |
| Cc1ccc(-c2cc(-c3ccccc3Cl)[nH]n2)c(O)c1 | 7150 nM |
| O=C1C=C(Nc2ccccc2)C(=O)c2ccccc21 | 1350 nM |
| CCOc1ccc2nc(-c3ccccc3)[nH]c2c1 | 1140 nM |
| CN(C)c1ccc(-c2nnc(-c3cccs3)o2)cc1 | 2240 nM |
| O=C(O)c1cc(N/N=C/c2ccc3c(c2)OCCO3)ccc1Cl | 26500 nM |
| Cc1noc(/C=C/Nc2ccc(F)cc2F)c1[N+](=O)[O-] | 2360 nM |
| O=C(O)c1ccc2nc(-c3ccccc3)sc2c1 | 1840 nM |
| Oc1ccccc1-c1cc(-c2ccc3c(c2)OCCO3)n[nH]1 | 639 nM |
| CCOc1ccc(-c2nc(-c3cccnc3)no2)cc1 | 906 nM |
| Cc1ccc(-c2cc(-c3cccc(F)c3)n[nH]2)c(O)c1 | 4400 nM |
| CCOC(=O)c1sc(=NC(=O)c2ccccc2)n(C)c1C | 2230 nM |
| Cc1ccc(-c2nnc(-c3cccs3)o2)cc1 | 2790 nM |
| COc1ccc(-c2cc(=O)c3cc(O)ccc3o2)cc1 | 6990 nM |
| O=c1[nH]c(/C=C2\C=Nc3ccccc32)c(O)n1Cc1ccccc1F | 2540 nM |
| Cc1cccc(Nc2nc3ccccc3s2)c1C | 4270 nM |
| O=C(Cc1cccs1)Nc1nc2c(s1)CCCC2 | 20200 nM |
| Nc1nn(-c2ccccc2)c(N)c1N=Nc1ccc2c(c1)OCO2 | 1600 nM |

| SMILES | EC50 |
| --- | --- |
| Cc1ccc(/C=C2\OC(=O)c3ccccc32)cc1 | 6030 nM |
| O=C(Nc1ccc2c(c1)CCC2)c1ccccc1F | 1800 nM |
| COc1ccc(C2=Nc3cc(C)ccc3OC2)cc1 | 1950 nM |
| O=C(Nc1cccnc1)c1cc2c(ccc3ccccc32)o1 | 3460 nM |
| Clc1cccc(-c2nnc(-c3ccccc3)o2)c1 | 1670 nM |
| CCOC(=O)c1c(N)sc(C(=O)Nc2ccccc2F)c1C | 1920 nM |
| N/C(=N\OC(=O)COc1ccc(Cl)cc1Cl)c1ccccn1 | 1190 nM |
| O=C(Nc1ccc(N2CCCC2)c(Cl)c1)c1cccs1 | 1510 nM |
| CCOC(=O)c1c(N)sc(C(=O)Nc2ccccc2)c1C | 1930 nM |
| COc1ccc(-c2csc(Nc3ncccc3C)n2)cc1 | 1650 nM |
| Cc1ccc(NCc2nc3ccccc3n2C)cc1 | 3360 nM |
| COc1ccc2nc(SCc3ccccc3)nc(C)c2c1 | 6570 nM |
| COC(=O)c1ccc(/C=C(\C#N)c2ccccn2)cc1 | 25100 nM |
| COc1ccc(N=Cc2sc(O)c3ccccc23)cc1 | 992 nM |
| O=c1oc2ccccc2cc1-c1csc(Nc2ccc(O)cc2)n1 | 3230 nM |
| CN(C)c1ccc(C(=O)c2ccc(N(C)C)c3ccccc23)cc1 | 221 nM |
| CCNc1nc(N)nc(-c2cc(Cl)ccc2O)n1 | 847 nM |
| O=C(Nc1ccc2c(c1)OCCO2)Nc1ccc2c(c1)OCO2 | 114 nM |
| CCCCCCCOc1ccc(OC(=O)c2cccnc2)cc1 | 161 nM |
| O=C(NCCSc1ccccn1)c1ccc(Cl)cc1 | 2700 nM |
